In article PMC5218480 (PLoS ONE, 2017):

System: MV-4-11 cells
Test: Gene expression microarray analysis (Affymetrix PrimeView) and GSEA
Assay type: cell-based, human
Design: RFU PODN (11730768_x_at) / Fold change /veh PODN (11730768_x_at) / RFU LINC00158 (11744669_a_at) / Fold change /veh LINC00158 (11744669_a_at) / RFU DUSP10 (11751237_a_at) / Fold change /veh DUSP10 (11751237_a_at) / RFU ID3 (11757404_x_at) / Fold change /veh ID3 (11757404_x_at) / RFU PLEKHG5 (11737974_s_at) / Fold change /veh PLEKHG5 (11737974_s_at) / RFU LRRC4B (11730491_at) / Fold change /veh LRRC4B (11730491_at) / RFU GIMAP4 (11747438_a_at) / Fold change /veh GIMAP4 (11747438_a_at) / RFU KRT8 (11758183_x_at) / Fold change /veh KRT8 (11758183_x_at) / RFU CNN1 (11734310_a_at) / Fold change /veh CNN1 (11734310_a_at) / RFU VPS37D (11726825_at) / Fold change /veh VPS37D (11726825_at) / RFU C10orf10 (11716522_x_at) / Fold change /veh C10orf10 (11716522_x_at) / RFU KIR2DL2 /// KIR2DL4 /// KIR2DL5A /// KIR2DL5B /// KIR2DS1 /// KIR2DS2 /// KIR2DS3 /// KIR2DS4 /// KIR3DL3 /// KIR3DL3 /// KIR3DS1 (11738374_at) / Fold change /veh KIR2DL2 /// KIR2DL4 /// KIR2DL5A /// KIR2DL5B /// KIR2DS1 /// KIR2DS2 /// KIR2DS3 /// KIR2DS4 /// KIR3DL3 /// KIR3DL3 /// KIR3DS1 (11738374_at) / RFU C1QL1 (11718748_at) / Fold change /veh C1QL1 (11718748_at) / RFU TMPRSS4 (11747572_a_at) / Fold change /veh TMPRSS4 (11747572_a_at) / RFU HAMP (11756126_x_at) / Fold change /veh HAMP (11756126_x_at) / RFU RNFT2 (11725882_a_at) / Fold change /veh RNFT2 (11725882_a_at) / RFU NR4A2 (11747474_a_at) / Fold change /veh NR4A2 (11747474_a_at) / RFU ABCC12 (11746883_a_at) / Fold change /veh ABCC12 (11746883_a_at) / RFU TMEM136 (11760407_x_at) / Fold change /veh TMEM136 (11760407_x_at) / RFU CLDN22 /// WWC2 (11732394_at) / Fold change /veh CLDN22 /// WWC2 (11732394_at) / RFU HLA-DPB1 (11760878_x_at) / Fold change /veh HLA-DPB1 (11760878_x_at) / RFU SPINT1 (11716480_a_at) / Fold change /veh SPINT1 (11716480_a_at) / RFU GAP43 (11754022_s_at) / Fold change /veh GAP43 (11754022_s_at) / RFU A4GNT (11735810_at) / Fold change /veh A4GNT (11735810_at) / RFU PRB3 (11715151_x_at) / Fold change /veh PRB3 (11715151_x_at) / RFU TUBB4B (11761932_at) / Fold change /veh TUBB4B (11761932_at) / RFU CAPN14 (11732068_a_at) / Fold change /veh CAPN14 (11732068_a_at) / RFU TMCC2 (11721928_a_at) / Fold change /veh TMCC2 (11721928_a_at) / RFU IRGQ (11745062_a_at) / Fold change /veh IRGQ (11745062_a_at) / RFU FAM174B (11720279_a_at) / Fold change /veh FAM174B (11720279_a_at) / RFU TMPRSS4 (11748680_a_at) / Fold change /veh TMPRSS4 (11748680_a_at) / RFU FAM212B (11763350_a_at) / Fold change /veh FAM212B (11763350_a_at) / RFU PLEKHG5 (11743358_a_at) / Fold change /veh PLEKHG5 (11743358_a_at) / RFU ZSCAN30 (11745921_a_at) / Fold change /veh ZSCAN30 (11745921_a_at) / RFU CMKLR1 (11741424_a_at) / Fold change /veh CMKLR1 (11741424_a_at) / RFU LOC101060620 /// MAPK8IP1 (11723275_at) / Fold change /veh LOC101060620 /// MAPK8IP1 (11723275_at) / RFU SPTSSB (11747773_x_at) / Fold change /veh SPTSSB (11747773_x_at) / RFU PRSS12 (11739890_at) / Fold change /veh PRSS12 (11739890_at) / RFU BIN1 (11741810_x_at) / Fold change /veh BIN1 (11741810_x_at) / RFU WNT11 (11732464_a_at) / Fold change /veh WNT11 (11732464_a_at) / RFU C10orf10 (11716521_a_at) / Fold change /veh C10orf10 (11716521_a_at) / RFU C5orf56 (11738089_at) / Fold change /veh C5orf56 (11738089_at) / RFU CYB561 (11721691_x_at) / Fold change /veh CYB561 (11721691_x_at) / RFU ANKRD19P (11752326_a_at) / Fold change /veh ANKRD19P (11752326_a_at) / RFU OR2T12 /// OR2T33 /// OR2T8 (11738714_s_at) / Fold change /veh OR2T12 /// OR2T33 /// OR2T8 (11738714_s_at) / RFU VCAN (11748164_a_at) / Fold change /veh VCAN (11748164_a_at) / RFU JSRP1 (11732532_at) / Fold change /veh JSRP1 (11732532_at) / RFU KRTAP10-11 (11738290_x_at) / Fold change /veh KRTAP10-11 (11738290_x_at) / RFU MYO3A (11730013_a_at) / Fold change /veh MYO3A (11730013_a_at) / RFU EBF3 (11725865_a_at) / Fold change /veh EBF3 (11725865_a_at) / RFU CAMK2N1 (11719241_x_at) / Fold change /veh CAMK2N1 (11719241_x_at) / RFU C5orf56 (11738088_a_at) / Fold change /veh C5orf56 (11738088_a_at) / RFU OLFML3 (11715873_a_at) / Fold change /veh OLFML3 (11715873_a_at) / RFU LOC100653217 /// NTM (11731650_a_at) / Fold change /veh LOC100653217 /// NTM (11731650_a_at) / RFU MAPK11 (11762145_a_at) / Fold change /veh MAPK11 (11762145_a_at) / RFU FIZ1 (11724087_x_at) / Fold change /veh FIZ1 (11724087_x_at) / RFU OASL (11726364_x_at) / Fold change /veh OASL (11726364_x_at) / RFU SOX15 (11748057_x_at) / Fold change /veh SOX15 (11748057_x_at) / RFU CD79A (11719716_a_at) / Fold change /veh CD79A (11719716_a_at) / RFU HIST1H1D (11736915_at) / Fold change /veh HIST1H1D (11736915_at) / RFU CASKIN2 (11723855_a_at) / Fold change /veh CASKIN2 (11723855_a_at) / RFU LOC730098 (11760151_x_at) / Fold change /veh LOC730098 (11760151_x_at) / RFU OR4N2 (11742367_at) / Fold change /veh OR4N2 (11742367_at) / RFU PRRT2 (11749266_a_at) / Fold change /veh PRRT2 (11749266_a_at) / RFU SNX32 (11753110_a_at) / Fold change /veh SNX32 (11753110_a_at) / RFU CDHR5 (11726645_a_at) / Fold change /veh CDHR5 (11726645_a_at) / RFU RCAN1 (11760418_a_at) / Fold change /veh RCAN1 (11760418_a_at) / RFU FAM167A (11723789_a_at) / Fold change /veh FAM167A (11723789_a_at) / RFU FAM26E (11764081_at) / Fold change /veh FAM26E (11764081_at) / RFU ISYNA1 (11749810_s_at) / Fold change /veh ISYNA1 (11749810_s_at) / RFU ACY1 (11761880_at) / Fold change /veh ACY1 (11761880_at) / RFU 11764098_at / Fold change /veh 11764098_at / RFU SAMD14 (11745864_x_at) / Fold change /veh SAMD14 (11745864_x_at) / RFU NPB (11741838_a_at) / Fold change /veh NPB (11741838_a_at) / RFU TMPRSS6 (11731388_a_at) / Fold change /veh TMPRSS6 (11731388_a_at) / RFU KRTAP10-2 (11738614_at) / Fold change /veh KRTAP10-2 (11738614_at) / RFU ARHGAP8 /// PRR5-ARHGAP8 (11727945_x_at) / Fold change /veh ARHGAP8 /// PRR5-ARHGAP8 (11727945_x_at) / RFU KRTAP5-7 /// NADSYN1 (11734609_at) / Fold change /veh KRTAP5-7 /// NADSYN1 (11734609_at) / RFU RASL12 (11751679_a_at) / Fold change /veh RASL12 (11751679_a_at) / RFU CDKN2B (11736163_a_at) / Fold change /veh CDKN2B (11736163_a_at) / RFU PRF1 (11729649_at) / Fold change /veh PRF1 (11729649_at) / RFU, ZNF638 /// ZNF638-IT1 / Fold change vs veh, ZNF638 /// ZNF638-IT1 / RFU, PANK3 / Fold change vs veh, PANK3 / RFU, SH3YL1 / Fold change vs veh, SH3YL1 / RFU, ZEB2 / Fold change vs veh, ZEB2 / RFU, NRIP1 / Fold change vs veh, NRIP1 / RFU, PTTG1IP / Fold change vs veh, PTTG1IP / RFU, CAPN2 / Fold change vs veh, CAPN2 / RFU, MED14 / Fold change vs veh, MED14 / RFU, SNORA58 / Fold change vs veh, SNORA58 / RFU, C1orf63 / Fold change vs veh, C1orf63 / RFU, LRRFIP1 / Fold change vs veh, LRRFIP1 / RFU, NDUFAF7 / Fold change vs veh, NDUFAF7 / RFU, SLC12A2 / Fold change vs veh, SLC12A2 / RFU, IBTK / Fold change vs veh, IBTK / RFU, ESF1 / Fold change vs veh, ESF1 / Fold change vs veh, TMEM50B / RFU, TAOK1 / Fold change vs veh, TAOK1 / RFU, ACBD3 / Fold change vs veh, ACBD3 / RFU, TMA16 / Fold change vs veh, TMA16 / RFU, RWDD3 / Fold change vs veh, RWDD3 / RFU, BCAT1 / Fold change vs veh, BCAT1 / RFU, EDEM3 / Fold change vs veh, EDEM3 / RFU, TMEM33 / Fold change vs veh, TMEM33 / RFU, WDR75 / Fold change vs veh, WDR75 / RFU, AHCTF1 / Fold change vs veh, AHCTF1 / RFU, TFRC / Fold change vs veh, TFRC / RFU, ZDHHC17 / Fold change vs veh, ZDHHC17 / RFU, NOM1 / Fold change vs veh, NOM1 / RFU, ARL8B / Fold change vs veh, ARL8B / RFU, ZBTB11 / Fold change vs veh, ZBTB11 / RFU, TAMM41 / Fold change vs veh, TAMM41 / RFU, KIAA1704 /// LOC100996395 / Fold change vs veh, KIAA1704 /// LOC100996395 / RFU, ING1 / Fold change vs veh, ING1 / RFU, TRMT61B / Fold change vs veh, TRMT61B / RFU, FUBP3 / Fold change vs veh, FUBP3 / RFU, TP53 / Fold change vs veh, TP53 / RFU, TNKS2 / Fold change vs veh, TNKS2 / RFU, ZFP14 / Fold change vs veh, ZFP14 / RFU, ACTR2 / Fold change vs veh, ACTR2 / RFU, PPP3R1 / Fold change vs veh, PPP3R1 / RFU, PIK3R1 / Fold change vs veh, PIK3R1 / RFU, HNRNPA1 / Fold change vs veh, HNRNPA1 / RFU, RNF170 / Fold change vs veh, RNF170 / RFU, ZNF28 / Fold change vs veh, ZNF28 / RFU, RNGTT / Fold change vs veh, RNGTT / RFU, OGT / Fold change vs veh, OGT / RFU, BRD1 / Fold change vs veh, BRD1 / RFU, MARS / Fold change vs veh, MARS / RFU, ZNF655 / Fold change vs veh, ZNF655 / RFU, FAHD1 / Fold change vs veh, FAHD1 / RFU, BDP1 / Fold change vs veh, BDP1 / RFU, LRRCC1 / Fold change vs veh, LRRCC1 / RFU, ARID1A / Fold change vs veh, ARID1A / RFU, ZNF146 / Fold change vs veh, ZNF146 / RFU, ZNF330 / Fold change vs veh, ZNF330 / RFU, GPN3 / Fold change vs veh, GPN3 / RFU, C9orf123 / Fold change vs veh, C9orf123 / RFU, N4BP2L2 / Fold change vs veh, N4BP2L2 / RFU, ARFIP1 / Fold change vs veh, ARFIP1 / RFU, FAM179B / Fold change vs veh, FAM179B / RFU, BCL10 / Fold change vs veh, BCL10 / RFU, UHRF1BP1L / Fold change vs veh, UHRF1BP1L / RFU, BET1 / Fold change vs veh, BET1 / RFU, CNOT2 / Fold change vs veh, CNOT2 / RFU, ZNF268 / Fold change vs veh, ZNF268 / Fold change vs veh, ZNF507 / RFU, DGCR2 / Fold change vs veh, DGCR2 / RFU, WDSUB1 / Fold change vs veh, WDSUB1 / Fold change vs veh, HSP90B1 /// MIR3652 / RFU, ADSS / Fold change vs veh, ADSS / RFU, GK / Fold change vs veh, GK / RFU, ZNF148 / Fold change vs veh, ZNF148 / RFU, TAF9 / Fold change vs veh, TAF9 / RFU, SLC1A5 / Fold change vs veh, SLC1A5 / RFU, SLMO2 / Fold change vs veh, SLMO2 / RFU, ABCC4 / Fold change vs veh, ABCC4 / RFU, LOC101060439 /// RAP1B / Fold change vs veh, LOC101060439 /// RAP1B / RFU, RFX7 / Fold change vs veh, RFX7 / RFU, GTPBP10 / Fold change vs veh, GTPBP10 / RFU, CNEP1R1 / Fold change vs veh, CNEP1R1 / RFU, BIVM-ERCC5 /// ERCC5 / Fold change vs veh, BIVM-ERCC5 /// ERCC5 / RFU, ILF3 / Fold change vs veh, ILF3 / RFU 11762660_at / Fold change /veh 11762660_at / RFU VCAN (11757783_s_at) / Fold change /veh VCAN (11757783_s_at) / RFU DDX43 (11728927_at) / Fold change /veh DDX43 (11728927_at) / RFU KRT8 (11758188_x_at) / Fold change /veh KRT8 (11758188_x_at) / RFU NKD1 (11759106_at) / Fold change /veh NKD1 (11759106_at) / RFU SRD5A1 (11742802_a_at) / Fold change /veh SRD5A1 (11742802_a_at) / RFU TPSAB1 /// TPSB2 (11721975_s_at) / Fold change /veh TPSAB1 /// TPSB2 (11721975_s_at) / RFU GSTM3 (11746129_a_at) / Fold change /veh GSTM3 (11746129_a_at) / RFU IL23R (11737362_x_at) / Fold change /veh IL23R (11737362_x_at) / RFU TMEM51 (11727254_a_at) / Fold change /veh TMEM51 (11727254_a_at) / RFU PIWIL2 (11732686_x_at) / Fold change /veh PIWIL2 (11732686_x_at) / RFU ORM1 (11744905_x_at) / Fold change /veh ORM1 (11744905_x_at) / RFU CCDC152 (11743942_at) / Fold change /veh CCDC152 (11743942_at) / RFU ECM1 (11717891_a_at) / Fold change /veh ECM1 (11717891_a_at) / RFU IL23R (11748794_a_at) / Fold change /veh IL23R (11748794_a_at) / RFU TNFAIP8L3 (11732012_x_at) / Fold change /veh TNFAIP8L3 (11732012_x_at) / RFU MBOAT4 (11741988_at) / Fold change /veh MBOAT4 (11741988_at) / RFU 11764193_at / Fold change /veh 11764193_at / RFU TMEM53 (11763286_at) / Fold change /veh TMEM53 (11763286_at) / RFU MAGEB2 (11727129_at) / Fold change /veh MAGEB2 (11727129_at) / RFU TMEM200A (11744735_a_at) / Fold change /veh TMEM200A (11744735_a_at) / RFU CCDC152 (11751479_a_at) / Fold change /veh CCDC152 (11751479_a_at) / RFU FAM211A (11726209_a_at) / Fold change /veh FAM211A (11726209_a_at) / RFU RGS16 (11746705_a_at) / Fold change /veh RGS16 (11746705_a_at) / RFU VCAN (11755009_s_at) / Fold change /veh VCAN (11755009_s_at) / RFU RHOB (11743442_s_at) / Fold change /veh RHOB (11743442_s_at) / RFU RGS16 (11720943_a_at) / Fold change /veh RGS16 (11720943_a_at) / RFU RGS16 (11720944_at) / Fold change /veh RGS16 (11720944_at) / RFU, VPS4B / Fold change vs veh, VPS4B / RFU, CREB1 / Fold change vs veh, CREB1 / RFU, DNAJC13 / Fold change vs veh, DNAJC13 / RFU, GNAQ / Fold change vs veh, GNAQ / RFU, CDK5R1 / Fold change vs veh, CDK5R1 / RFU, ZRANB3 / Fold change vs veh, ZRANB3 / RFU, CUL4A / Fold change vs veh, CUL4A / RFU, CCNY / Fold change vs veh, CCNY / RFU, UFL1 / Fold change vs veh, UFL1 / RFU, COG3 / Fold change vs veh, COG3 / RFU, DIAPH2 / Fold change vs veh, DIAPH2 / RFU, SKA2 / Fold change vs veh, SKA2 / RFU, AFF3 / Fold change vs veh, AFF3 / RFU, LMF1 / Fold change vs veh, LMF1 / RFU, IPO11 / Fold change vs veh, IPO11 / RFU, DFFB / Fold change vs veh, DFFB / RFU, FOXP1 / Fold change vs veh, FOXP1 / RFU, CARD8 / Fold change vs veh, CARD8 / RFU, STRN3 / Fold change vs veh, STRN3 / RFU, ADK / Fold change vs veh, ADK / RFU, RASSF2 / Fold change vs veh, RASSF2 / RFU, WIPF1 / Fold change vs veh, WIPF1 / RFU, LARP1B / Fold change vs veh, LARP1B / RFU, RASA1 / Fold change vs veh, RASA1 / RFU, RB1 / Fold change vs veh, RB1 / RFU, PPFIA1 / Fold change vs veh, PPFIA1 / RFU, MAT2A / Fold change vs veh, MAT2A / RFU, CCT5 / Fold change vs veh, CCT5 / RFU, WDR92 / Fold change vs veh, WDR92 / RFU, CUX1 / Fold change vs veh, CUX1 / RFU, TTC7A / Fold change vs veh, TTC7A / RFU, TMEM135 / Fold change vs veh, TMEM135 / RFU, DEPTOR / Fold change vs veh, DEPTOR / RFU, CPM / Fold change vs veh, CPM / RFU, DNAJB6 / Fold change vs veh, DNAJB6 / RFU, CACNA2D3 / Fold change vs veh, CACNA2D3 / RFU, DTX4 / Fold change vs veh, DTX4 / RFU, TFCP2 / Fold change vs veh, TFCP2 / RFU, GMCL1 /// GMCL1P1 / Fold change vs veh, GMCL1 /// GMCL1P1 / RFU, AEBP2 / Fold change vs veh, AEBP2 / RFU, SNHG1 /// SNORD22 /// SNORD25 /// SNORD26 /// SNORD27 /// SNORD28 /// SNORD29 /// SNORD31 / Fold change vs veh, SNHG1 /// SNORD22 /// SNORD25 /// SNORD26 /// SNORD27 /// SNORD28 /// SNORD29 /// SNORD31 / Fold change (Aza/veh), C12orf56 (ProbeSet 11735607_a_at) / Fold change (ACY-1035/veh), C12orf56 (ProbeSet 11735607_a_at) / Fold change (Aza/veh), FGFR1OP (ProbeSet 11751329_s_at) / Fold change (ACY-1035/veh), FGFR1OP (ProbeSet 11751329_s_at) / Fold change (Aza/veh), VPS36 (ProbeSet 11739960_a_at) / Fold change (ACY-1035/veh), VPS36 (ProbeSet 11739960_a_at) / RFU SYPL1 (11715823_x_at) / Fold change /veh SYPL1 (11715823_x_at) / RFU IGFBP7 (11715501_s_at) / Fold change /veh IGFBP7 (11715501_s_at) / RFU REEP3 (11722064_at) / Fold change /veh REEP3 (11722064_at) / RFU IGLL1 (11728026_x_at) / Fold change /veh IGLL1 (11728026_x_at): dose or concentration left out as unconfirmed
Conditions: MV-4-11 cells, 48 hours

Compound: Nc1ncn([C@@H]2O[C@H](CO)[C@@H](O)[C@H]2O)c(=O)n1 [azacitidine]
- Fold change /veh NR4A2 (11747474_a_at): 0.97
